US6737383B1, “Herbicidal oxadiazolidines” (priority 1999, dated 2004)

Experiments:
crabgrass = experiment: Test B pre/postemergence crabgrass; assay type: in vivo, Digitaria sanguinalis
Outline: (§1)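 Test chemicals in a non-phytotoxic solvent mixture with surfactant were sprayed preemergence onto planted seeds and postemergence onto plants 2 to 18 cm tall (1- to 4-leaf stage). After twelve to sixteen days in a greenhouse, injury was visually rated against untreated controls from 0 (no effect) to 10 (complete control).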

bedstraw = experiment: Test B pre/postemergence bedstraw; assay type: in vivo, Galium aparine
Outline: as §1

cocklebur = experiment: Test B pre/postemergence cocklebur; assay type: in vivo, Xanthium strumarium
Outline: as §1

giant foxtail = experiment: Test B pre/postemergence giant foxtail; assay type: in vivo, Setaria faberii
Outline: as §1

soybean = experiment: Test B pre/postemergence soybean; assay type: in vivo, Glycine max
Outline: as §1

rape = experiment: Test B pre/postemergence rape; assay type: in vivo, Brassica napus
Outline: as §1

morningglory = experiment: Test B pre/postemergence morningglory; assay type: in vivo, Ipomoea hederacea
Outline: as §1

wheat = experiment: Test B pre/postemergence wheat; assay type: in vivo, Triticum aestivum
Outline: as §1

purple nutsedge = experiment: Test B pre/postemergence purple nutsedge; assay type: in vivo, Cyperus rotundus
Outline: as §1

blackgrass = experiment: Test B pre/postemergence blackgrass; assay type: in vivo, Alopecurus myosuroides
Outline: as §1

pigweed = experiment: Test B pre/postemergence pigweed; assay type: in vivo, Amaranthus retroflexus
Outline: as §1

corn = experiment: Test B pre/postemergence corn; assay type: in vivo, Zea mays
Outline: as §1

sugar beet = experiment: Test B pre/postemergence sugar beet; assay type: in vivo, Beta vulgaris
Outline: as §1

surinam grass = experiment: Test B pre/postemergence surinam grass; assay type: in vivo, Brachiaria decumbens; settings: Postemergence
Outline: as §1

wild oat = experiment: Test B pre/postemergence wild oat; assay type: in vivo, Avena fatua
Outline: as §1

velvetleaf = experiment: Test B pre/postemergence velvetleaf; assay type: in vivo, Abutilon theophrasti
Outline: as §1

[1] = Postemergence, Rate 125 g/ha, scale of 0 to 10 where 0 is no effect and 10 is complete control
[2] = Postemergence, Rate 500 g/ha, scale 0 (no effect) to 10 (complete control)
[3] = Postemergence, Rate 1000 g/ha, scale 0 to 10 (0 no effect, 10 complete control)
[4] = Preemergence, Rate 250 g/ha, scale 0 (no effect) to 10 (complete control)
[5] = Rate 125 g/ha, Preemergence, scale 0 to 10 (0 no effect, 10 complete control)
[6] = Rate 250 g/ha, Postemergence, scale 0 to 10, 0 is no effect, 10 is complete control
[7] = Rate 500 g/ha, Preemergence, scale 0 to 10 (0 no effect, 10 complete control)
[8] = Rate 1000 g/ha, Preemergence, scale 0 to 10 (0 no effect, 10 complete control)

COC(=O)N(C)CCn1c(=O)on(C(=O)N(c2ccccc2)C(C)C)c1=O [Compound 775]
9: Crabgrass plant response rating (crabgrass; [2]) | Crabgrass plant response rating (crabgrass; [3]) | Crabgrass plant response rating (crabgrass; [4]) | Crabgrass plant response rating (crabgrass; [5]) | Giant foxtail plant response rating (giant foxtail; [2]) | Giant foxtail plant response rating (giant foxtail; [3]) | Giant foxtail plant response rating (giant foxtail; [5]) | Plant response rating, Wheat (wheat; [8]) | Plant response rating, Nutsedge (purple nutsedge; [8]) | Blackgrass plant response rating (blackgrass; [4]) | Redroot pigweed plant response rating (pigweed; [7]) | B. signalgrass plant response rating (surinam grass; Rate 1000 g/ha, scale 0 to 10 (0 no effect, 10 complete control)) | Plant response rating, Wild oats (wild oat; [8])
8: Morningglory plant response rating (morningglory; [3]) | Wheat plant response rating (wheat; [7]) | Wild oats plant response rating (wild oat; [7])
0: Bedstraw plant response rating (bedstraw; [1]) | Bedstraw plant response rating (bedstraw; [4]) | Bedstraw plant response rating (bedstraw; [5]) | Cocklebur plant response rating (cocklebur; [1]) | Cocklebur plant response rating (cocklebur; [2]) | Cocklebur plant response rating (cocklebur; [3]) | Cocklebur plant response rating (cocklebur; [4]) | Cocklebur plant response rating (cocklebur; [5]) | Cocklebur plant response rating (cocklebur; [6]) | Cocklebur plant response rating (cocklebur; [7]) | Plant response rating, Cocklebur (cocklebur; [8]) | Soybean plant response rating (soybean; [5]) | Rape plant response rating (rape; [1]) | Rape plant response rating (rape; [2]) | Rape plant response rating (rape; [3]) | Rape plant response rating (rape; [5]) | Rape plant response rating (rape; [6]) | Rape plant response rating (rape; [7]) | Morningglory plant response rating (morningglory; [5]) | Wheat plant response rating (wheat; [2]) | Wheat plant response rating (wheat; [5]) | Wheat plant response rating (wheat; [6]) | Nutsedge plant response rating (purple nutsedge; [1]) | Nutsedge plant response rating (purple nutsedge; [3]) | Nutsedge plant response rating (purple nutsedge; [5]) | Nutsedge plant response rating (purple nutsedge; [6]) | Nutsedge plant response rating (purple nutsedge; [7]) | Blackgrass plant response rating (blackgrass; [1]) | Redroot pigweed plant response rating (pigweed; [5]) | Corn plant response rating (corn; [1]) | Corn plant response rating (corn; [2]) | Corn plant response rating (corn; [3]) | Corn plant response rating (corn; [4]) | Corn plant response rating (corn; [5]) | Corn plant response rating (corn; [6]) | Sugarbeets plant response rating (sugar beet; [2]) | Sugarbeets plant response rating (sugar beet; [5]) | Sugarbeets plant response rating (sugar beet; [6]) | Wild oats plant response rating (wild oat; [2]) | Wild oats plant response rating (wild oat; [6]) | Velvetleaf plant response rating (velvetleaf; [5]) | Velvetleaf plant response rating (velvetleaf; [7])
1: Soybean plant response rating (soybean; [7])
2: Bedstraw plant response rating (bedstraw; [6]) | Bedstraw plant response rating (bedstraw; [7]) | Plant response rating, Bedstraw (bedstraw; [8]) | Plant response rating, Soybean (soybean; [8]) | Morningglory plant response rating (morningglory; [7]) | B. signalgrass plant response rating (surinam grass; Rate 125 g/ha, scale of 0 to 10 where 0 is no effect and 10 is complete control) | Wild oats plant response rating (wild oat; [5]) | Velvetleaf plant response rating (velvetleaf; [2]) | Velvetleaf plant response rating (velvetleaf; [6])
4: Blackgrass plant response rating (blackgrass; [3]) | Blackgrass plant response rating (blackgrass; [6]) | Plant response rating, Corn (corn; [8]) | Plant response rating, Velvetleaf (velvetleaf; [8])
7: Crabgrass plant response rating (crabgrass; [6]) | Bedstraw plant response rating (bedstraw; [2]) | Bedstraw plant response rating (bedstraw; [3]) | Giant foxtail plant response rating (giant foxtail; [1]) | Giant foxtail plant response rating (giant foxtail; [6]) | Plant response rating, Rape (rape; [8]) | Blackgrass plant response rating (blackgrass; [2])
5: Morningglory plant response rating (morningglory; [1]) | Plant response rating, Morningglory (morningglory; [8]) | Blackgrass plant response rating (blackgrass; [5])
6: Soybean plant response rating (soybean; [2]) | Soybean plant response rating (soybean; [6]) | Morningglory plant response rating (morningglory; [2]) | Morningglory plant response rating (morningglory; [6]) | Redroot pigweed plant response rating (pigweed; [3])
3: Crabgrass plant response rating (crabgrass; [1]) | Redroot pigweed plant response rating (pigweed; [1]) | Redroot pigweed plant response rating (pigweed; [2]) | Redroot pigweed plant response rating (pigweed; [6]) | Corn plant response rating (corn; [7]) | Sugarbeets plant response rating (sugar beet; [7]) | Plant response rating, Sugarbeets (sugar beet; [8]) | B. signalgrass plant response rating (surinam grass; Rate 250 g/ha, scale 0 to 10, 0 is no effect, 10 is complete control) | B. signalgrass plant response rating (surinam grass; Rate 500 g/ha, scale 0 to 10, 0 is no effect, 10 is complete control)
10: Crabgrass plant response rating (crabgrass; [7]) | Plant response rating, Crabgrass (crabgrass; [8]) | Giant foxtail plant response rating (giant foxtail; [4]) | Giant foxtail plant response rating (giant foxtail; [7]) | Plant response rating, Giant foxtail (giant foxtail; [8]) | Blackgrass plant response rating (blackgrass; [7]) | Plant response rating, Blackgrass (blackgrass; [8]) | Plant response rating, Redroot pigweed (pigweed; [8])
